Drawing on patent US10294236B2, “Compounds as rearranged during transfection (RET) inhibitors” (GLAXOSMITHKLINE INTELLECTUAL PROPERTY DEVELOPMENT LIMITED, priority 2014, dated 2019), this text covers IC50 for 36 molecules.

Where a name gives a salt, the structure may show the parent alone.

This test concerns the target T1, Human RET kinase cytoplasmic domain (Homo sapiens, UniProt P07949).
T1 construct: made in house
T1 sequence (P07949 658-1114): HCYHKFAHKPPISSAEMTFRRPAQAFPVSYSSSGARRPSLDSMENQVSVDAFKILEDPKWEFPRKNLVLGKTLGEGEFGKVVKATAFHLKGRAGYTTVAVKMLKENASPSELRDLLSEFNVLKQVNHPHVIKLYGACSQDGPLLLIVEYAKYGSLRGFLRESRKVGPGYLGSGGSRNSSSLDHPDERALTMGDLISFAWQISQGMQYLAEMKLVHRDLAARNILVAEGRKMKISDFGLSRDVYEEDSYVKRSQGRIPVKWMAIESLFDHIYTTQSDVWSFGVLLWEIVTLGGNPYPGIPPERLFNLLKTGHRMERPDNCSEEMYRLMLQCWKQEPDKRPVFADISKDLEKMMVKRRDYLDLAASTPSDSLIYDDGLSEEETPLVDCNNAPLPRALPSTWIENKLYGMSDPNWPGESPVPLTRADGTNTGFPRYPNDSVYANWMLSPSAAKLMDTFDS
Kind of test: RET kinase enzymatic assay. The format is biochemical. The procedure: GST-RET was purified using glutathione sepharose chromatography. The RET kinase enzymatic assay was performed in a total volume of 10 uL with increasing concentrations of RET kinase inhibitor as a singlet in a 384 well format as follows: RET inhibitor compound plates are prepared by adding 100 nL of RET inhibitor at different concentrations to a 384-well plate. 5 μL/well of a 2× enzyme mix (50 mM HEPES (4-(2-hydroxyethyl)-1-piperazineethanesulfonic acid); 1 mM CHAPS (3-[(3-cholamidopropyl)dimethylammonio]-1-propanesulfonate); 0.1 mg/mL BSA (bovine serum albumin); 1 mM DTT (dithiothreitol); 0.2 nM RET kinase) was added to the 384-well plate and incubated for 30 minutes at 23° C. 5 µL/well of a 2× substrate mix (50 mM HEPES; 1 mM CHAPS; 0.1 mg/mL BSA; 20 μM adenosine triphosphate; 20 mM MgCl2 and 1 μM biotinylated peptide substrate) was added and incubated for 1 hour at 23° C. […] IC50s were fitted using GraphPad Prism to a sigmoidal dose response.
Consider `CCOc1cc(-c2ccc(NC(=O)Nc3ccc(OC4(C)CN(C)C4)c(C(F)(F)F)c3)c(F)c2)c[nH]c1=O` [Example 117], for which the IC50 (in general, the concentration needed to halve the response being measured) is less than 100 nM.
The result for `CCOc1cc(-c2ncc(NC(=O)Nc3cc(C(C)(C)C(F)(F)F)on3)cn2)c[nH]c1=O` [Example 181, 1-(2-(5-Ethoxy-6-oxo-1,6-dihydropyridin-3-yl)pyrimidin-5-yl)-3-(5-(1,1,1-trifluoro-2-methylpropan-2-yl)isoxazol-3-yl)urea hydrochloride] reads less than 100 nM; that for `CCOc1cc(-c2ccc(NC(=O)Nc3cc(C(F)(F)F)ccc3F)c(F)c2)c[nH]c1=O` [Example 78], less than 100 nM.
As to `CCOc1cc(-c2cnc(NC(=O)Nc3ccc(OC4(C)COC4)c(C(F)(F)F)c3)c(F)c2)c[nH]c1=O` [Example 103], the IC50 was less than 100 nM.
The result for `CCOc1cc(Oc2ccc(NC(=O)Nc3cc(C(F)(F)F)ccc3F)cc2)c[nH]c1=O` [Example 86] reads less than 100 nM; that for `CCOc1cc(-c2ncc(NC(=O)Nc3ccc(C(C)(C)C(N)=O)c(C(F)(F)F)c3)c(C)n2)c[nH]c1=O` [Example 63, 2-(4-(3-(2-(5-Ethoxy-6-oxo-1,6-dihydropyridin-3-yl)-4-methylpyrimidin-5-yl)ureido)-2-(trifluoromethyl)phenyl)-2-methylpropanamide], less than 100 nM.
The result for `Cc1nc(-c2c[nH]c(=O)c(OCCO)c2)ncc1NC(=O)Nc1cc(C(F)(F)F)c(CN2CCN(CCO)CC2)cc1F` [Example 173, 1-(2-Fluoro-4-((4-(2-hydroxyethyl)piperazin-1-yl)methyl)-5-(trifluoromethyl)phenyl)-3-(2-(5-(2-hydroxyethoxy)-6-oxo-1,6-dihydropyridin-3-yl)-4-methylpyrimidin-5-yl)urea] reads less than 100 nM; that for `CC1(Oc2ccc(NC(=O)Nc3ccc(-c4c[nH]c(=O)c5c4OCC5)cc3F)cc2C(F)(F)F)COC1` [Example 22, 1-(2-Fluoro-4-(4-oxo-2,3,4,5-tetrahydrofuro[3,2-c]pyridin-7-yl)phenyl)-3-(4-((3-methyloxetan-3-yl)oxy)-3-(trifluoromethyl)phenyl)urea], less than 100 nM; that for `CCOc1cc(=O)[nH]cc1-c1ncc(NC(=O)Nc2ccc(C#N)c(C(F)(F)F)c2)c(C)n1` [Example 44, 1-(4-Cyano-3-(trifluoromethyl)phenyl)-3-(2-(4-ethoxy-6-oxo-1,6-dihydropyridin-3-yl)-4-methylpyrimidin-5-yl)urea], less than 100 nM.
In the case of `CCOc1cc(-c2cnc(NC(=O)Nc3ccc(CC(C)(C)CO)c(C(F)(F)F)c3)c(C)c2)c[nH]c1=O` [Example 9, 1-(5′-Ethoxy-5-methyl-6′-oxo-1′,6′-dihydro-[3,3′-bipyridin]-6-yl)-3-(4-(3-hydroxy-2,2-dimethylpropyl)-3-(trifluoromethyl)phenyl)urea] it was less than 100 nM; in that of `CC(C)(O)c1ccc(NC(=O)Nc2ccc(-c3c[nH]c(=O)c4ccccc34)cc2F)cc1C(F)(F)F` [Example 75], less than 100 nM.
The molecule `CCOc1cc(-c2ccc(NC(=O)Nc3ccc(Cl)c(C(F)(F)F)c3)c(F)c2)c[nH]c1=O` [Example 152] registered an IC50 of less than 100 nM.
Consider `Cc1cc(=O)[nH]cc1-c1ccc(NC(=O)Nc2ccc(OC3(C)COC3)c(C(F)(F)F)c2)c(F)c1` [Example 168], for which the IC50 was less than 100 nM.
In the case of `CCOc1cc(-c2ccc(NC(=O)Nc3ccc(OC4(C)COC4)c(C(F)(F)F)c3)nc2)c[nH]c1=O` [Example 27, 1-(5′-Ethoxy-6′-oxo-1′,6′-dihydro-[3,3′-bipyridin]-6-yl)-3-(4-((3-methyloxetan-3-yl)oxy)-3-(trifluoromethyl)phenyl)urea], the IC50 was less than 100 nM.
In the case of `CCOc1cc(=O)[nH]cc1-c1ncc(NC(=O)Nc2cnc(C(C)(C)O)c(C(F)(F)F)c2)c(C)n1` [Example 28, 1-(2-(4-Ethoxy-6-oxo-1,6-dihydropyridin-3-yl)-4-methylpyrimidin-5-yl)-3-(6-(2-hydroxypropan-2-yl)-5-(trifluoromethyl)pyridin-3-yl)urea] it was less than 100 nM; in that of `CCOc1cc(-c2ccc(NC(=O)Nc3ccc(C(C)(C)CO)c(C(F)(F)F)c3)c(F)c2)c[nH]c1=O` [Example 120], less than 100 nM.
Molecule `CCOc1cc(-c2ccc(NC(=O)Nc3ccc(OC4(C)CS(=O)(=O)C4)c(C(F)(F)F)c3)c(F)c2)c[nH]c1=O` [Example 150] registered an IC50 of less than 100 nM.
`CCOc1cc(-c2ccc(NC(=O)Nc3ccc(CC(F)(F)CO)c(C(F)(F)F)c3)c(F)c2)c[nH]c1=O` [Example 125]: the IC50 is less than 100 nM.
For the molecule `CCOc1cc(-c2ccc(NC(=O)Nc3ccc(OC(C)C)c(C(F)(F)F)c3)c(F)c2)c[nH]c1=O` [Example 82], the IC50 was less than 100 nM.
In turn, `CCOc1cc(=O)[nH]cc1-c1ncc(NC(=O)Nc2cc(C(F)(F)F)c(CN3CCN(CC)CC3)cc2F)c(C)n1` [Example 191, 1-(2-(4-Ethoxy-6-oxo-1,6-dihydropyridin-3-yl)-4-methylpyrimidin-5-yl)-3-(4-((4-ethylpiperazin-1-yl)methyl)-2-fluoro-5-(trifluoromethyl)phenyl)urea trihydrochloride] gave a 50% inhibitory concentration (IC50) of less than 100 nM.
As to `CCOc1cc(-c2ccc(NC(=O)Nc3cc(C(F)(F)F)ccc3O)c(F)c2)c[nH]c1=O` [Example 141], the IC50 is less than 100 nM.
In the case of `CCOc1cc(-c2ccc(NC(=O)Nc3cnc(OC4(C)COC4)c(C(F)(F)F)c3)c(F)c2)c[nH]c1=O` [Example 148] it was less than 100 nM; in that of `CCOc1cc(-c2ccc(NC(=O)Nc3ccc(OC4(C)COC4)c(C(F)(F)F)c3)c(C3CC3)n2)c[nH]c1=O` [Example 104], less than 100 nM; in that of `COCCOc1cc(-c2ncc(NC(=O)Nc3cc(C(F)(F)F)c(CN4CCN(C)CC4)cc3F)c(C)n2)c[nH]c1=O` [Example 184, 1-(2-Fluoro-4-((4-methylpiperazin-1-yl)methyl)-5-(trifluoromethyl)-phenyl)-3-(2-(5-(2-methoxyethoxy)-6-oxo-1,6-dihydropyridin-3-yl)-4-methylpyrimidin-5-yl)urea trihydrochloride], less than 100 nM.
Regarding `COc1cc(-c2ccc(NC(=O)Nc3ccc(OC4(C)COC4)c(C(F)(F)F)c3)c(C)n2)c[nH]c1=O` [Example 100], the IC50 was less than 100 nM.
Consider `CCOc1cc(-c2ncc(NC(=O)Nc3ccc(C#N)c(C(F)(F)F)c3)c(C)n2)c[nH]c1=O` [Example 43, 1-(4-Cyano-3-(trifluoromethyl)phenyl)-3-(2-(5-ethoxy-6-oxo-1,6-dihydropyridin-3-yl)-4-methylpyrimidin-5-yl)urea], for which the IC50 is less than 100 nM.
`CCOc1cc(-c2ncc(NC(=O)Nc3cc(-n4cnc(C)c4)cc(C(F)(F)F)c3)c(CC)n2)c[nH]c1=O` [Example 56, 1-(2-(5-Ethoxy-6-oxo-1,6-dihydropyridin-3-yl)-4-ethylpyrimidin-5-yl)-3-(3-(4-methyl-1H-imidazol-1-yl)-5-(trifluoromethyl)phenyl)urea] gave an IC50 of less than 100 nM.
The result for `CCOc1cc(-c2ncc(NC(=O)Nc3ccc(CN4CCCC4)c(C(F)(F)F)c3)c(C)n2)c[nH]c1=O` [Example 111] reads 100 to 500 nM.
In the case of `CCOc1cc(-c2ccc(NC(=O)Nc3ccc(OCCO)c(C(F)(F)F)c3)c(F)c2)c[nH]c1=O` [Example 143] it was less than 100 nM; in that of `CCOc1cc(-c2ncc(NC(=O)Nc3ccc(CC(C)(C)N)c(C(F)(F)F)c3)c(C)n2)c[nH]c1=O` [Example 185, 1-(4-(2-Amino-2-methylpropyl)-3-(trifluoromethyl)phenyl)-3-(2-(5-ethoxy-6-oxo-1,6-dihydropyridin-3-yl)-4-methylpyrimidin-5-yl)urea], less than 100 nM; in that of `CCOc1cc(-c2ccc(NC(=O)Nc3ccc(Cl)c(Cl)c3)c(F)c2)c[nH]c1=O` [Example 170], less than 100 nM.
The result for `CCOc1cc(-c2ccc(NC(=O)Nc3ccc(C(N)=O)c(C(F)(F)F)c3)c(F)c2)c[nH]c1=O` [Example 162] reads less than 100 nM; that for `CCOc1cc(-c2ncc(NC(=O)Nc3ccc(CN4CCC4)c(C(F)(F)F)c3)c(C)n2)c[nH]c1=O` [Example 109], less than 100 nM; that for `CCOc1cc(-c2ccc(NC(=O)Nc3ccc(OC4(C)CCC4)c(C(F)(F)F)c3)c(F)c2)c[nH]c1=O` [Example 149], less than 100 nM.
In turn, `CCOc1cc(-c2ccc(NC(=O)Nc3ccc(OC4(C)COC4)c(C(F)(F)F)c3F)c(F)c2)c[nH]c1=O` [Example 166] had an IC50 of less than 100 nM.
`CCOc1cc(-c2ncc(NC(=O)Nc3cc(OCCN(C)C)cc(C(F)(F)F)c3)cn2)c[nH]c1=O` [Example 178, 1-(3-(2-(dimethylamino)ethoxy)-5-(trifluoromethyl)phenyl)-3-(2-(5-ethoxy-6-oxo-1,6-dihydropyridin-3-yl)pyrimidin-5-yl)urea dihydrochloride]: the IC50 is less than 100 nM.
